Values of other authors in patent US6730813B2, “Method for producing n-(phosphonomethyl) glycine” (Monsanto Technology LLC, priority 2000, dated 2004).
Like-named read-outs stand apart in the source and are kept apart here.

SMILES: O=C(O)CNCP(=O)(O)O [glyphosate, N-(phosphonomethyl)glycine]
- solubility in organic solvents (organic solvents, compared with water): much lower
- solubility in water (5° C.): 0.8%
- solubility in water (20° C.): 1.1%
- solubility in water (95° C.): 6.5%
